ChEMBL document CHEMBL1133765, “QSAR model for drug human oral bioavailability” (J Med Chem, 2000)

What was measured:
[1] = octanol/water
clinical = conditions: human, in vivo, po
physchem [2] = conditions: octanol/water
physchem [3] = assay: physchem

| SMILES | delta logD [1] | bioavailability (clinical; F) [%] | logD (physchem [2]; pH 6.5, logD) | pKa (physchem [3]) | bioavailability (clinical) [%] | logD (physchem [2]; pH 6.5) |
| --- | --- | --- | --- | --- | --- | --- |
| CNCCC[C@]12CC[C@H](c3ccccc31)c1ccccc12 | -0.9 | 79 | 0.52 | 10.5 |  |  |
| CNS(=O)(=O)Cc1ccc2[nH]cc(CCN(C)C)c2c1 | -0.9 | < 20 | -2.07 | 9.4 |  |  |
| CC(C)(C)NC(=O)C1CC[C@H]2[C@]3(C)CC[C@H]4NC(=O)C=C[C@]4(C)[C@H]3CC[C@]12C (some centres not stated) | 0 | 79 | 3.03 |  |  |  |
| CO/C(O)=C1\C(C)=NC(C)=C(C(=O)OCC(C)C)C1c1ccccc1[N+](=O)[O-] (configuration not stated) | 0 | < 20 | 1.58 |  |  |  |
| CC(C)=CCN1CC[C@@]2(C)c3cc(O)ccc3C[C@@H]1[C@@H]2C | -0.88 |  |  | 8.8 | 49 | 1.05 |
| Nc1nc(N)c2nc(-c3ccccc3)c(N)nc2n1 | -0.15 | 79 | 0.8 | 6.2 |  |  |
| CN(C)CCC=C1c2ccccc2CCc2ccccc21 [AMITRIPTYLINE] | -0.9 |  |  |  | 49 | 2.14 |
| CC(=O)Oc1ccccc1C(=O)O [ASPIRIN] | 0.9 | 79 | -1.81 |  |  |  |
| C[C@H]1C[C@H]2[C@@H]3CCC4=CC(=O)C=C[C@]4(C)[C@@]3(F)[C@@H](O)C[C@]2(C)[C@@]1(O)C(=O)CO [BETAMETHASONE] | 0 |  | 1.94 |  |  |  |
| CNC1=Nc2ccc(Cl)cc2C(c2ccccc2)=[N+]([O-])C1 [CHLORDIAZEPOXIDE] | -0.01 |  |  | 4.8 | > 80 | 2.43 |
| Cc1ncsc1CCCl [CLOMETHIAZOLE] | 0 |  |  |  | < 20 | 2.12 |
| O=C1CN=C(c2ccccc2Cl)c2cc([N+](=O)[O-])ccc2N1 [CLONAZEPAM] | 0 |  |  |  | > 80 | 2.41 |
| Clc1cccc(Cl)c1N=C1NCCN1 [CLONIDINE] | -0.82 | > 80 | 0.06 | 8 |  |  |
| CN1CCN(C2=Nc3cc(Cl)ccc3Nc3ccccc32)CC1 [CLOZAPINE] | -0.81 |  |  |  | 79 | 1.81 |
| O=P1(N(CCCl)CCCl)NCCCO1 (configuration not stated) [CYCLOPHOSPHAMIDE ANHYDROUS] | 0 |  |  |  | > 80 | 0.63 |
| C[C@@H]1C[C@H]2[C@@H]3CCC4=CC(=O)C=C[C@]4(C)[C@@]3(F)[C@@H](O)C[C@]2(C)[C@@]1(O)C(=O)CO [DEXAMETHASONE] | 0 |  | 1.83 |  |  |  |
| CC(CCc1ccc(O)cc1)NCCc1ccc(O)c(O)c1 (configuration not stated) [DOBUTAMINE] | -0.9 | < 20 | -0.48 | 9.5 |  |  |
| NCCc1ccc(O)c(O)c1 [DOPAMINE] | -0.9 | < 20 | -3.37 | 8.9 |  |  |
| CCCCCc1cc(O)c2c(c1)OC(C)(C)[C@@H]1CCC(C)=C[C@@H]21 [DRONABINOL] | 0 |  |  |  | < 20 | 4.49 |
| CNC[C@H](O)c1ccc(O)c(O)c1 [EPINEPHRINE] | -0.9 | < 20 | -3.49 | 9.9 |  |  |

| SMILES | delta logD [1] | bioavailability (clinical; F) [%] | logD (physchem [2]; pH 6.5, logD) | pKa (physchem [3]) | bioavailability (clinical) [%] | logD (physchem [2]; pH 6.5) |
| --- | --- | --- | --- | --- | --- | --- |
| C#C[C@]1(O)CC[C@H]2[C@@H]3CCc4cc(O)ccc4[C@H]3CC[C@@]21C [ETHINYL ESTRADIOL] | 0 | 49 | 3.67 |  |  |  |
| CCC1(C)CC(=O)NC1=O (configuration not stated) [ETHOSUXIMIDE] | 0 |  |  |  | > 80 | -0.33 |
| CCNCC(O)c1cccc(O)c1 (configuration not stated) [ETILEFRINE] | -0.9 |  |  | 9.8 | 49 | -2.86 |
| CCNC(C)Cc1cccc(C(F)(F)F)c1 (configuration not stated) [FENFLURAMINE] | -0.9 |  |  | 10 | 79 | 0.4 |
| Nc1nc(=O)[nH]cc1F [FLUCYTOSINE] | 0 | > 80 | -1.65 |  |  |  |
| CCOC(=O)c1ncn2c1CN(C)C(=O)c1cc(F)ccc1-2 [FLUMAZENIL] | -0.14 |  |  | 6.2 | < 20 | 1.01 |
| O=c1[nH]cc(F)c(=O)[nH]1 [FLUOROURACIL] | 0.1 |  |  | 8 | 49 | -0.89 |
| O=C(CCCN1CCC(O)(c2ccc(Cl)cc2)CC1)c1ccc(F)cc1 [HALOPERIDOL] | -0.86 | 79 | 1.42 |  |  |  |
| NNC(=O)c1ccncc1 [ISONIAZID] | 0 | > 80 | -0.7 |  |  |  |
| CC(C)NCC(O)c1ccc(O)c(O)c1 (configuration not stated) [ISOPROTERENOL] | -0.88 | 49 | -2.76 | 8.7 |  |  |
| CN(C)CC(Oc1ccccc1)Oc1ccccc1 [MEDIFOXAMINE] | -0.89 | 49 | -0.43 | 9.2 |  |  |
| CC(C)NCC(O)c1cc(O)cc(O)c1 (configuration not stated) [METAPROTERENOL] | -0.9 | < 20 | -2.72 | 9.3 |  |  |
| C[C@H]1C[C@@H]2[C@H]([C@@H](O)C[C@@]3(C)[C@H]2CC[C@]3(O)C(=O)CO)[C@@]2(C)C=CC(=O)C=C12 [METHYLPREDNISOLONE] | 0 | > 80 | 1.66 |  |  |  |
| CN1CCN2c3ccccc3Cc3ccccc3C2C1 (configuration not stated) [MIANSERIN] | -0.52 | 49 | 2.78 |  |  |  |
| CN1CCN2c3ncccc3Cc3ccccc3C2C1 (configuration not stated) [MIRTAZAPINE] | -0.55 | 79 | 2.01 | 7.1 |  |  |
| Oc1ccc2c3c1O[C@H]1[C@@H](O)CC[C@@]4(O)[C@@H](C2)N(CC2CCC2)CC[C@]314 [NALBUPHINE] | -0.88 |  |  | 8.7 | < 20 | -0.63 |
| C=CCN1CC[C@]23c4c5ccc(O)c4O[C@H]2C(=O)CC[C@@]3(O)[C@H]1C5 [NALOXONE] | -0.81 |  |  |  | < 20 | 0.64 |
| COC(=O)C1=C(C)NC(C)=C(C(=O)OCCN(C)Cc2ccccc2)C1c1cccc([N+](=O)[O-])c1 (configuration not stated) [NICARDIPINE] | -0.72 | 49 | 1.18 | 7.6 |  |  |
| COC(=O)C1=C(C#N)NC(C)=C(C(=O)OC(C)C)C1c1cccc([N+](=O)[O-])c1 (configuration not stated) [NILVADIPINE] | 0 | < 20 | 1.99 |  |  |  |
| COCCOC(=O)C1=C(C)NC(C)=C(C(=O)OC(C)C)C1c1cccc([N+](=O)[O-])c1 (configuration not stated) [NIMODIPINE] | 0 | < 20 | 0.73 |  |  |  |

| SMILES | delta logD [1] | bioavailability (clinical; F) [%] | logD (physchem [2]; pH 6.5, logD) | pKa (physchem [3]) | bioavailability (clinical) [%] | logD (physchem [2]; pH 6.5) |
| --- | --- | --- | --- | --- | --- | --- |
| O=C1CN=C(c2ccccc2)c2cc([N+](=O)[O-])ccc2N1 [NITRAZEPAM] | 0 |  |  |  | 79 | 2.25 |
| O=C1CN(/N=C/c2ccc([N+](=O)[O-])o2)C(=O)N1 [NITROFURANTOIN] | 0 | > 80 | -0.47 |  |  |  |
| CNC(=C[N+](=O)[O-])NCCSCc1csc(CN(C)C)n1 [NIZATIDINE] | -0.38 | > 80 | -0.08 | 6.8 |  |  |
| C#C[C@]1(O)CC[C@H]2[C@@H]3CCC4=CC(=O)CC[C@@H]4[C@H]3CC[C@@]21C [NORETHINDRONE] | 0 | 79 | 2.97 |  |  |  |
| CNCCC=C1c2ccccc2CCc2ccccc21 [NORTRIPTYLINE] | -0.9 | 79 | 1.08 |  |  |  |
| Cc1nccn1CC1CCc2c(c3ccccc3n2C)C1=O (configuration not stated) [ONDANSETRON] | -0.61 | 79 | 1.13 | 7.3 |  |  |
| CC(=O)CCCCn1c(=O)c2c(ncn2C)n(C)c1=O [PENTOXIFYLLINE] | 0 | 49 | 0.29 |  |  |  |
| CCC1(c2ccccc2)C(=O)NC(=O)NC1=O [PHENOBARBITAL] | 0.21 |  |  |  | > 80 | 1.43 |
| CNC[C@H](O)c1cccc(O)c1 [PHENYLEPHRINE] | -0.9 | 49 | -3.02 | 9.8 |  |  |
| O=C1NC(=O)C(c2ccccc2)(c2ccccc2)N1 [PHENYTOIN] | 0.1 | > 80 | 2.47 | 8 |  |  |
| COc1cc(NC(C)CCCN)c2ncccc2c1 (configuration not stated) [PRIMAQUINE] | -0.9 | 79 | -2.19 | 10.3 |  |  |
| CCC1(c2ccccc2)C(=O)NCNC1=O [PRIMIDONE] | 0 | > 80 | 0.91 |  |  |  |
| CC(C)(Sc1cc(C(C)(C)C)c(O)c(C(C)(C)C)c1)Sc1cc(C(C)(C)C)c(O)c(C(C)(C)C)c1 [PROBUCOL] | 0 | < 20 | 7.29 |  |  |  |
| CN1CCN(CCCN2c3ccccc3Sc3ccc(Cl)cc32)CC1 [PROCHLORPERAZINE] | -0.69 | < 20 | 2.51 | 7.5 |  |  |
| Cc1nc2n(c(=O)c1CCN1CCC(c3noc4cc(F)ccc34)CC1)CCCC2 [RISPERIDONE] | -0.9 |  |  |  | 79 | 0.74 |
| CC(=O)S[C@@H]1CC2=CC(=O)CC[C@]2(C)[C@H]2CC[C@@]3(C)[C@@H](CC[C@@]34CCC(=O)O4)[C@H]12 [SPIRONOLACTONE] | 0 | 49 | 2.78 |  |  |  |
| COc1cc2nc(N3CCN(C(=O)C4CCCO4)CC3)nc(N)c2cc1OC (configuration not stated) [TERAZOSIN] | -0.52 | > 80 | 0.29 |  |  |  |
| CC(C)(C)NCC(O)c1cc(O)cc(O)c1 (configuration not stated) [TERBUTALINE] | -0.89 | < 20 | -1.82 |  |  |  |
